{"source": "ChEMBL document CHEMBL4261654", "about": "“Synthesis and in vitro antitumor activity of novel alkenyl derivatives of pyridoxine, bioisosteric analogs of feruloyl methane” (Bioorg Med Chem, 2018)", "key": {"MCF7 [1]": {"test_system": "MCF7", "assay": "Antiproliferative activity against human MCF7 cells after 72 hrs by MTT assay", "type": "functional, cell-based", "settings": "MCF7, 72 h"}, "HEK293": {"test_system": "HEK293", "assay": "Antiproliferative activity against human HEK293 cells after 72 hrs by MTT assay", "type": "cell-based", "settings": "HEK293, 72 h"}, "OVCAR-4 [2]": {"test_system": "OVCAR-4", "assay": "Potency index, ratio of compound IC50 to dehydrozingerone IC50 for antiproliferative activity against human OVCAR4 cells", "type": "functional"}, "[3]": {"assay": "Antioxidant activity assessed as ferric ion reducing activity at 20 to 320 umol after 20 mins by FRAP assay", "type": "functional"}, "HCT-15 [4]": {"test_system": "HCT-15", "assay": "Potency index, ratio of compound IC50 to dehydrozingerone IC50 for antiproliferative activity against human HCT15 cells", "type": "functional"}, "SNB-19 [5]": {"test_system": "SNB-19", "assay": "Antiproliferative activity against human SNB19 cells after 72 hrs by MTT assay", "type": "functional, cell-based", "settings": "SNB-19, 72 h"}, "HCT-116 [6]": {"test_system": "HCT-116", "assay": "Antiproliferative activity against human HCT116 cells after 72 hrs by MTT assay", "type": "functional, cell-based", "settings": "HCT-116, 72 h"}, "MCF7 [7]": {"test_system": "MCF7", "assay": "Potency index, ratio of compound IC50 to dehydrozingerone IC50 for antiproliferative activity against human MCF7 cells", "type": "functional"}, "[8]": {"assay": "Antiproliferative activity against HSF cells after 72 hrs by MTT assay", "type": "cell-based", "settings": "Homo sapiens"}, "MDA-MB-231 [9]": {"test_system": "MDA-MB-231", "assay": "Potency index, ratio of compound IC50 to dehydrozingerone IC50 for antiproliferative activity against human MDA-MB-231 cells", "type": "functional"}, "MDA-MB-231 [10]": {"test_system": "MDA-MB-231", "assay": "Antiproliferative activity against human MDA-MB-231 cells after 72 hrs by MTT assay", "type": "functional, cell-based", "settings": "MDA-MB-231, 72 h"}, "A498 [11]": {"test_system": "A498", "assay": "Potency index, ratio of compound IC50 to dehydrozingerone IC50 for antiproliferative activity against human A498 cells", "type": "functional"}, "NCI-H322M [12]": {"test_system": "NCI-H322M", "assay": "Potency index, ratio of compound IC50 to dehydrozingerone IC50 for antiproliferative activity against human NCI-H322M cells", "type": "functional"}, "M14 [13]": {"test_system": "M14", "assay": "Potency index, ratio of compound IC50 to dehydrozingerone IC50 for antiproliferative activity against human M14 cells", "type": "functional"}, "[14]": {"assay": "Ratio of compound IC50 to dehydrozingerone IC50 for antiproliferative activity against HSF cells", "type": "cell-based", "settings": "human, read-out: Ratio IC50"}, "M14 [15]": {"test_system": "M14", "assay": "Antiproliferative activity against human M14 cells after 72 hrs by MTT assay", "type": "functional, cell-based", "settings": "M14, 72 h"}, "[16]": {"assay": "Selectivity index, ratio of IC50 for HSF cells to IC50 for human MCF7 cells", "type": "toxicity", "settings": "HSF cells versus MCF7 cells, read-out: Ratio IC50"}, "SNB-19 [17]": {"test_system": "SNB-19", "assay": "Potency index, ratio of compound IC50 to dehydrozingerone IC50 for antiproliferative activity against human SNB19 cells", "type": "functional"}, "HCT-116 [18]": {"test_system": "HCT-116", "assay": "Potency index, ratio of compound IC50 to dehydrozingerone IC50 for antiproliferative activity against human HCT116 cells", "type": "functional"}, "A498 [19]": {"test_system": "A498", "assay": "Antiproliferative activity against human A498 cells after 72 hrs by MTT assay", "type": "functional, cell-based", "settings": "A498, 72 h"}, "HCT-15 [20]": {"test_system": "HCT-15", "assay": "Antiproliferative activity against human HCT15 cells after 72 hrs by MTT assay", "type": "functional, cell-based", "settings": "HCT-15, 72 h"}, "PC-3 [21]": {"test_system": "PC-3", "assay": "Antiproliferative activity against human PC3 cells after 72 hrs by MTT assay", "type": "functional, cell-based", "settings": "PC-3, 72 h"}, "NCI-H322M [22]": {"test_system": "NCI-H322M", "assay": "Antiproliferative activity against human NCI-H322M cells after 72 hrs by MTT assay", "type": "functional, cell-based"}, "PC-3 [23]": {"test_system": "PC-3", "assay": "Potency index, ratio of compound IC50 to dehydrozingerone IC50 for antiproliferative activity against human PC3 cells", "type": "functional"}, "OVCAR-4 [24]": {"test_system": "OVCAR-4", "assay": "Antiproliferative activity against human OVCAR4 cells after 72 hrs by MTT assay", "type": "functional, cell-based", "settings": "OVCAR-4, 72 h"}}, "note": "Active and inactive are the calls of the source. The rule behind the calls is not given here.", "data": [{"smiles": "CC(=O)/C=C/c1cnc(C)c2c1COC(C(C)(C)C)O2", "note": "(stereo not drawn)", "values": [{"measurement": "IC50", "setting": "MCF7 [1]", "value": 4.1, "unit": "µM"}, {"measurement": "IC50", "setting": "HEK293", "value": 1.2, "unit": "µM"}]}, {"smiles": "CC(=O)/C=C/c1cnc(C)c(O)c1CO", "values": [{"measurement": "IC50", "setting": "MCF7 [1]", "value": 398, "unit": "µM"}, {"measurement": "IC50", "setting": "HEK293", "value": 121, "unit": "µM"}]}, {"smiles": "CCCC1OCc2c(/C=C/C(C)=O)cnc(C)c2O1", "note": "(stereo not drawn)", "values": [{"measurement": "IC50", "setting": "MCF7 [1]", "value": 2.2, "unit": "µM"}, {"measurement": "IC50", "setting": "HEK293", "value": 2.9, "unit": "µM"}]}, {"smiles": "CC(=O)/C=C/c1nc(C)c(O)c2c1COC(C)(C)OC2", "values": [{"measurement": "IC50", "setting": "MCF7 [1]", "value": 27, "unit": "µM"}, {"measurement": "IC50", "setting": "HEK293", "value": 38, "unit": "µM"}]}, {"smiles": "CCC1OCc2c(/C=C/C(C)=O)cnc(C)c2O1", "note": "(stereo not drawn)", "values": [{"measurement": "Ratio IC50", "setting": "OVCAR-4 [2]", "value": "7 - 211"}, {"measurement": "Activity", "setting": "[3]", "value": "inactive"}, {"measurement": "Ratio IC50", "setting": "HCT-15 [4]", "value": "7 - 211"}, {"measurement": "IC50", "setting": "SNB-19 [5]", "value": 6.7, "unit": "µM"}, {"measurement": "IC50", "setting": "HCT-116 [6]", "value": 4.1, "unit": "µM"}, {"measurement": "Ratio IC50", "setting": "MCF7 [7]", "value": "7 - 211"}, {"measurement": "IC50", "setting": "[8]", "value": 18.9, "unit": "µM"}, {"measurement": "IC50", "setting": "MCF7 [1]", "value": 3.9, "unit": "µM"}, {"measurement": "Ratio IC50", "setting": "MDA-MB-231 [9]", "value": "7 - 211"}, {"measurement": "IC50", "setting": "MDA-MB-231 [10]", "value": 3.1, "unit": "µM"}, {"measurement": "Ratio IC50", "setting": "A498 [11]", "value": "7 - 211"}, {"measurement": "Ratio IC50", "setting": "NCI-H322M [12]", "value": "7 - 211"}, {"measurement": "Ratio IC50", "setting": "M14 [13]", "value": "7 - 211"}, {"measurement": "selectivity ratio", "setting": "[14]", "value": "7 to 211"}, {"measurement": "IC50", "setting": "M14 [15]", "value": 9.7, "unit": "µM"}, {"measurement": "selectivity ratio", "setting": "[16]", "value": 4.8}, {"measurement": "Ratio IC50", "setting": "SNB-19 [17]", "value": "7 - 211"}, {"measurement": "IC50", "setting": "HEK293", "value": 36, "unit": "µM"}, {"measurement": "Ratio IC50", "setting": "HCT-116 [18]", "value": "7 - 211"}, {"measurement": "IC50", "setting": "A498 [19]", "value": 17, "unit": "µM"}, {"measurement": "IC50", "setting": "HCT-15 [20]", "value": 2.1, "unit": "µM"}, {"measurement": "IC50", "setting": "PC-3 [21]", "value": 8.8, "unit": "µM"}, {"measurement": "IC50", "setting": "NCI-H322M [22]", "value": 10.6, "unit": "µM"}, {"measurement": "Ratio IC50", "setting": "PC-3 [23]", "value": "7 - 211"}, {"measurement": "IC50", "setting": "OVCAR-4 [24]", "value": 23.6, "unit": "µM"}]}, {"smiles": "CC(=O)/C=C/c1cnc(C)c2c1COC(C)(C)O2", "values": [{"measurement": "IC50", "setting": "MCF7 [1]", "value": 6.6, "unit": "µM"}, {"measurement": "IC50", "setting": "HEK293", "value": 17, "unit": "µM"}]}, {"smiles": "COc1cccc2c1C(=O)c1c(O)c3c(c(O)c1C2=O)C[C@@](O)(C(=O)CO)C[C@@H]3O[C@H]1C[C@H](N)[C@H](O)[C@H](C)O1", "note": "[DOXORUBICIN]", "values": [{"measurement": "IC50", "setting": "SNB-19 [5]", "value": 0.15, "unit": "µM"}, {"measurement": "IC50", "setting": "HCT-116 [6]", "value": 0.4, "unit": "µM"}, {"measurement": "IC50", "setting": "[8]", "value": 2.2, "unit": "µM"}, {"measurement": "IC50", "setting": "MDA-MB-231 [10]", "value": 0.3, "unit": "µM"}, {"measurement": "IC50", "setting": "M14 [15]", "value": 3.4, "unit": "µM"}, {"measurement": "IC50", "setting": "HEK293", "value": 1.2, "unit": "µM"}, {"measurement": "IC50", "setting": "A498 [19]", "value": 6.1, "unit": "µM"}, {"measurement": "IC50", "setting": "HCT-15 [20]", "value": 2.2, "unit": "µM"}, {"measurement": "IC50", "setting": "PC-3 [21]", "value": 0.23, "unit": "µM"}, {"measurement": "IC50", "setting": "NCI-H322M [22]", "value": 29, "unit": "µM"}, {"measurement": "IC50", "setting": "OVCAR-4 [24]", "value": 0.15, "unit": "µM"}]}, {"smiles": "CCCCC1OCc2c(/C=C/C(C)=O)cnc(C)c2O1", "note": "(stereo not drawn)", "values": [{"measurement": "IC50", "setting": "MCF7 [1]", "value": 1.3, "unit": "µM"}, {"measurement": "IC50", "setting": "HEK293", "value": 13, "unit": "µM"}]}]}
